Assay results published in PubChem BioAssay AID1963833 (Molecular Pharmacology Branch, DTP, NCI, 2024).

Tested on: 883617-216-R-J1-PDC complex spheroid viability
Test: Anticancer human tumor 883617-216-R-J1-PDC patient-derived bladder carcinoma cell line growth inhibition [POLQ]
Conditions: for IC50: curve of first compound; for viability, T/C: stronger effect = lower value
Summary of the method: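 PDC + HUVEC + MSC complex spheroids; POLQ inhibitors ± partner drugs; top conc. at/near clinical Cmax, else 10 microM (SN-38 1 microM), half-log dilutions; 37 degrees C, 5% CO2.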

[1] = second compound 0.0316 µM, first compound 0.00316 µM
[2] = second compound 0.0316 µM, first compound 0.01 µM
[3] = second compound 0.0316 µM, first compound 0.0316 µM
[4] = second compound 0.0316 µM, first compound 0.1 µM
[5] = second compound 0.0316 µM, first compound 0.316 µM
[6] = second compound 0.0316 µM, first compound 1 µM
[7] = second compound 0.1 µM, first compound 0.00316 µM
[8] = second compound 0.1 µM, first compound 0.01 µM
[9] = second compound 0.1 µM, first compound 0.0316 µM
[10] = second compound 0.1 µM, first compound 0.1 µM
[11] = second compound 0.1 µM, first compound 0.316 µM
[12] = second compound 0.1 µM, first compound 1 µM
[13] = second compound 0.316 µM, first compound 0.00316 µM
[14] = second compound 0.316 µM, first compound 0.01 µM
[15] = second compound 0.316 µM, first compound 0.0316 µM
[16] = second compound 0.316 µM, first compound 0.1 µM
[17] = second compound 0.316 µM, first compound 0.316 µM
[18] = second compound 0.316 µM, first compound 1 µM
[19] = second compound 1 µM, first compound 0.00316 µM
[20] = second compound 1 µM, first compound 0.01 µM
[21] = second compound 1 µM, first compound 0.0316 µM
[22] = second compound 1 µM, first compound 0.1 µM
[23] = second compound 1 µM, first compound 0.316 µM
[24] = second compound 1 µM, first compound 1 µM
[25] = second compound 3.16 µM, first compound 0.00316 µM
[26] = second compound 3.16 µM, first compound 0.01 µM
[27] = second compound 3.16 µM, first compound 0.0316 µM
[28] = second compound 3.16 µM, first compound 0.1 µM
[29] = second compound 3.16 µM, first compound 0.316 µM
[30] = second compound 3.16 µM, first compound 1 µM
[31] = second compound 10 µM, first compound 0.00316 µM
[32] = second compound 10 µM, first compound 0.01 µM
[33] = second compound 10 µM, first compound 0.0316 µM
[34] = second compound 10 µM, first compound 0.1 µM
[35] = second compound 10 µM, first compound 0.316 µM
[36] = second compound 10 µM, first compound 1 µM
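Also: spheroids exposed to compounds for seven days before readout.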
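For viability, T/C in this document: 100% = DMSO vehicle control viability.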

Structure (SMILES): COc1cccc(OCCCN)c1-c1cc(Nc2cnc(C#N)cn2)n[nH]1 + COC1C(OC(N)=O)C(O)C(Oc2ccc3c(O)c(NC(=O)c4ccc(O)c(CC=C(C)C)c4)c(=O)oc3c2C)OC1(C)C
- IC50 (second compound 0.0316 µM): 38.9 nM
- IC50 (second compound 0.1 µM): 33.2 nM
- IC50 (second compound 0.316 µM): 58.9 nM
- IC50 (second compound 1 µM): 24.4 nM
- IC50 (second compound 3.16 µM): 21.5 nM
- IC50 (second compound 10 µM): 36.5 nM
- viability, T/C [1]: 83.3%
- viability, T/C [2]: 73.8%
- viability, T/C [3]: 46.9%
- viability, T/C [4]: 42.4%
- viability, T/C [5]: 28.1%
- viability, T/C [6]: 23.4%
- viability, T/C [7]: 91%
- viability, T/C [8]: 76.8%
- viability, T/C [9]: 46.5%
- viability, T/C [10]: 40.4%
- viability, T/C [11]: 27.6%
- viability, T/C [12]: 27.1%
- viability, T/C [13]: 85.6%
- viability, T/C [14]: 67.3%
- viability, T/C [15]: 66.3%
- viability, T/C [16]: 37.6%
- viability, T/C [17]: 32.5%
- viability, T/C [18]: 30%
- viability, T/C [19]: 90.8%
- viability, T/C [20]: 69.9%
- viability, T/C [21]: 42.6%
- viability, T/C [22]: 35.4%
- viability, T/C [23]: 27.7%
- viability, T/C [24]: 27.2%
- viability, T/C [25]: 88.2%
- viability, T/C [26]: 62.2%
- viability, T/C [27]: 41.4%
- viability, T/C [28]: 37.5%
- viability, T/C [29]: 39.6%
- viability, T/C [30]: 27.4%
- viability, T/C [31]: 92.2%
- viability, T/C [32]: 75.2%
- viability, T/C [33]: 50.9%
- viability, T/C [34]: 36.2%
- viability, T/C [35]: 35%
- viability, T/C [36]: 25.7%

Structure (SMILES): C#Cc1c(F)ccc2cc(O)cc(-c3ncc4c(N5CC6CCC(C5)N6)nc(OCC56CCCN5CC(F)C6)nc4c3F)c12 (stereo unspecified) + COC1C(OC(N)=O)C(O)C(Oc2ccc3c(O)c(NC(=O)c4ccc(O)c(CC=C(C)C)c4)c(=O)oc3c2C)OC1(C)C
- IC50 (second compound 0.0316 µM): > 10000 nM
- IC50 (second compound 0.1 µM): > 10000 nM
- IC50 (second compound 0.316 µM): > 10000 nM
- IC50 (second compound 1 µM): > 10000 nM
- IC50 (second compound 3.16 µM): > 10000 nM
- IC50 (second compound 10 µM): > 10000 nM
- viability, T/C [3]: 90.3%
- viability, T/C [4]: 108%
- viability, T/C [5]: 96.2%
- viability, T/C [6]: 97.9%
- viability, T/C (second compound 0.0316 µM, first compound 3.16 µM): 81.1%
- viability, T/C (second compound 0.0316 µM, first compound 10 µM): 75%
- viability, T/C [9]: 121%
- viability, T/C [10]: 100%
- viability, T/C [11]: 90.4%
- viability, T/C [12]: 83.4%
- viability, T/C (second compound 0.1 µM, first compound 3.16 µM): 87.3%
- viability, T/C (second compound 0.1 µM, first compound 10 µM): 78.2%
- viability, T/C [15]: 96.1%
- viability, T/C [16]: 114%
- viability, T/C [17]: 90%
- viability, T/C [18]: 91%
- viability, T/C (second compound 0.316 µM, first compound 3.16 µM): 70.3%
- viability, T/C (second compound 0.316 µM, first compound 10 µM): 67%
- viability, T/C [21]: 99.7%
- viability, T/C [22]: 98.8%
- viability, T/C [23]: 83.8%
- viability, T/C [24]: 91.4%
- viability, T/C (second compound 1 µM, first compound 3.16 µM): 81.9%
- viability, T/C (second compound 1 µM, first compound 10 µM): 86.3%
- viability, T/C [27]: 98.6%
- viability, T/C [28]: 93.6%
- viability, T/C [29]: 95.5%
- viability, T/C [30]: 94.4%
- viability, T/C (second compound 3.16 µM, first compound 3.16 µM): 84.4%
- viability, T/C (second compound 3.16 µM, first compound 10 µM): 76.3%
- viability, T/C [33]: 85.8%
- viability, T/C [34]: 101%
- viability, T/C [35]: 101%
- viability, T/C [36]: 85.7%
- viability, T/C (second compound 10 µM, first compound 3.16 µM): 91.8%
- viability, T/C (second compound 10 µM, first compound 10 µM): 73.6%

Structure (SMILES): C=CCn1c(=O)c2cnc(Nc3ccc(N4CCN(C)CC4)cc3)nc2n1-c1cccc(C(C)(C)O)n1 + Nc1ccc(C#CCN(C(=O)Cc2ncc(C(F)(F)F)cc2C(F)(F)F)c2ccc(F)cc2)nn1
- IC50 (second compound 0.0316 µM): > 1000 nM
- IC50 (second compound 0.1 µM): > 1000 nM
- IC50 (second compound 0.316 µM): > 1000 nM
- IC50 (second compound 1 µM): 978 nM
- IC50 (second compound 3.16 µM): > 1000 nM
- IC50 (second compound 10 µM): 924 nM
- viability, T/C [1]: 102%
- viability, T/C [2]: 98.9%
- viability, T/C [3]: 84.3%
- viability, T/C [4]: 113%
- viability, T/C [5]: 96.4%
- viability, T/C [6]: 59.8%
- viability, T/C [7]: 100%
- viability, T/C [8]: 95.6%
- viability, T/C [9]: 95.8%
- viability, T/C [10]: 94.1%
- viability, T/C [11]: 88.3%
- viability, T/C [12]: 86.8%
- viability, T/C [13]: 102%
- viability, T/C [14]: 115%
- viability, T/C [15]: 106%
- viability, T/C [16]: 108%
- viability, T/C [17]: 92.4%
- viability, T/C [18]: 63.6%
- viability, T/C [19]: 101%
- viability, T/C [20]: 96.5%
- viability, T/C [21]: 81.1%
- viability, T/C [22]: 101%
- viability, T/C [23]: 103%
- viability, T/C [24]: 49%
- viability, T/C [25]: 115%
- viability, T/C [26]: 109%
- viability, T/C [27]: 85.7%
- viability, T/C [28]: 99.3%
- viability, T/C [29]: 115%
- viability, T/C [30]: 58.4%
- viability, T/C [31]: 126%
- viability, T/C [32]: 101%
- viability, T/C [33]: 108%
- viability, T/C [34]: 116%
- viability, T/C [35]: 128%
- viability, T/C [36]: 45.1%
